Entries after “also recorded” stand apart in the source; their conditions may differ.
Experiments:
IKKβ = test: TNFα-induced IKKβ phosphorylation, IκBα phosphorylation and degradation; format: cell-based
Description: All studies used two TNBC cell lines, MDA-MB-231 and MDA-MB-468. […] For IκBα degradation, cells were treated as described above and stimulated with 20 ng/mL TNFα for 10 min.
(§1) Western blotting was performed. 20-60 μg of total lysates per lane were loaded on 7%, 10%, or 12% SDS-PAGE and transferred onto nitrocellulose or polyvinylidene difluoride membranes (Bio-Rad). The membranes were probed with primary antibodies against caspase-3, multi-drug resistance protein-1 (MRP1), poly [ADP ribose] polymerase-1 (PARP-1), ubiquitin, RelA; cyclin D1, p21, caspase-9, MRP4, IKKβ, pIKKβ, IκBα, or pIκBα (Cell Signaling); caspase-8 (R&D Systems). Samples were normalized to β-actin (Sigma-Aldrich) or GAPDH (Trevigen).

[1] = test system: NF-κB transcriptional activity; test: NF-κB luciferase reporter; format: cell-based; details: MDA-MB-231 and MDA-MB-468 cells, 5 μM 2 hr then TNFα 20 ng/mL 4 hr
Description: Luciferase-chemiluminescence-based analysis of NF-κB transcriptional activity was performed. MDA-MB-231 and MDA-MB-468 cells (˜70% confluence) in 12-well plates were transiently transfected with a NF-κB-luciferase reporter plasmid (Stratagene, La Jolla, CA) with Lipofectamine 3000. […] Each transfection was performed in triplicate. Luciferase activity was measured using the Dual-luciferase assay kit (Promega). Relative light units (RLU) were measured using a 96-well plate luminometer, according to the manufacturer's instructions (Victor II, PerkinElmer Life Sciences). Protein concentration was determined using the BCA Assay (Thermo Fisher Scientific). Data represents the ratio of treated samples to controls in the context of mean RLU/protein content, +/−SD. Three individual experiments were done, and statistical significance was determined by Kruskal-Wallis test followed by Dunn's post-test with Bonferroni corrections for multiple comparisons.

[2] = test system: MDA-MB-231 and MDA-MB-468 cells; test: FACS cell cycle analysis; format: cell-based; details: MCF-10A, MDA-MB-231 and MDA-MB-468 cells, 24 hr
Description: Adherent and nonadherent cells were collected, centrifuged at 2000×rpm for 10 min, washed with ice-cold phosphate-buffered saline, fixed with cold 70% ethanol at 4° C. for 30 mins, and stained with 50 μg/mL propidium iodide (Sigma-Aldrich). FACS analysis was performed at the University of Pittsburgh Department of Immunology Unified Flow Core Facility. Three individual experiments were done, and statistical comparisons among phases (G0/G1, S, and G2/M) were determined by one-way analysis of variance followed by Tukey post-test.

[3] = test system: RelA in MDA-MB-231 and MDA-MB-468 cells; test: RelA protein level and polyubiquitination; format: cell-based; details: 5 μM, 24 hr
Description: Lysates were clarified by centrifugation at 14,000×g for 10 min. Protein lysates (1 mg) were incubated with anti-RelA antibody and Protein G/A conjugated agarose beads (EMD Millipore, Bedford, MA) at 4° C., overnight. Immunoprecipitation fraction were obtained by centrifugation at 14,000×g for 1 min at RT and washed with lysis buffer three times. The immunoprecipitated RelA was resolved by 8% SDSPAGE gel, and transferred to nitrocellulose membrane (Bio-Rad) for immunoblotting probed with an anti-ubiquitin antibody (Santa Cruz Biotechnology). The blot was then stripped and probed with an anti-RelA antibody to assess amounts of RelA protein pull-down.
as §1

MDA-MB-231 cells [4] = test: Cell growth assay (FluoReporter dsDNA); format: cell-based; details: TNBC cell lines MDA-MB-231 and MDA-MB-468, 48 hr
Description: Cells were plated at a cell density of 5000 cells per well in 96-well plates. […] Cells were counted using the FluoReporter dsDNA quantitation kit (Molecular Probes) according to the manufacturer's instructions. Fluorescence was measured using a SpectraMax M2 plate reader (Molecular Devices). […] Three individual experiments were done (n=5/each), and statistical comparison between two cell lines across doses was determined by two-way analysis of variance followed by Tukey post-test.

MDA-MB-468 cells = test: Matrigel cell invasion assay; format: cell-based; details: NO2-OA/NO2-SA 5 μM, JSH-23 10 μM, TNFα 20 ng/mL, 24 hr
Description: Cells were then suspended in migration media and placed in the top well of invasion chambers (EMD Millipore). Chemoattractant (5% FBS) was placed in the lower chamber for 24 hr at 37° C. to attract invasive cells. Cells were then harvested and invasion rates were determined according to manufacturer's protocol. Three individual experiments were done, and statistical comparison among treatments was determined by one-way analysis of variance followed by Tukey post-test.

MDA-MB 231 TNBC cells = test: Metabolism in MDA-MB-231 cells by HPLC-MSMS; format: in vitro ADME; details: for omega hydroxylation and carboxylation: 10 uM; for omega hydroxylation and carboxylation / cysteine adduct formation: cell media and cell homogenate
Description: FIG. 18. […] Growth inhibition was assessed using the ATP Celltiter Glo proliferation assay and compounds were used at different concentration to determine their EC50. CP-1 had the lowest EC50 followed by 7-NDA and 8-NDA. […] The different metabolic pathways of 7-NDA and 8-NDA have been characterized in MDA-MB-231 TNBC cells. MDA-MB 231 TNBC cells incorporate and metabolize 7-NDA and 8-NDA through beta oxidation (FIG. 19). Inactivation of the active 7-NDA and 8-NDA nitroalkene group is achieved through reduction to a nitroalkane (FIG. 20).
FIG. 19. […] Dinor 7-NDA corresponds to one beta-oxidation cycle while tetranor corresponds to two beta oxidation cycles. […] Formation of both Dinor and Tetranor 8-NDA are shown. Chromatograms correspond to the detection by HPLC-MSMS of the different compounds in negative ion mode using MRMs on a triple quadrupole mass spectrometer.
FIG. 20. […] Chromatograms correspond to the detection by HPLC-MSMS of the different compounds in negative ion mode using MRMs on a triple quadrupole mass spectrometer.
FIG. 21. […] Chromatograms correspond to the detection by HPLC-MSMS of the different using specific MRM transitions on a triple quadrupole mass spectrometer.
FIG. 22. […] Dicarboxylic acids of both 7-NDA and 8-NDA have been detected in cell media and cell homogenate from cell treated with 10 uM 7-NDA or 8-NDA. Chromatograms correspond to the detection by HPLC-MSMS of the different using specific MRM transitions on a triple quadrupole mass spectrometer.

MDA-MB-231 cells [5] = test: CellTiter-Glo relative growth (luminescent ATP); format: cell-based; details: for EC50 for growth inhibition, compared between compounds: ATP Celltiter Glo proliferation assay, n=3
Description: HEK 293T, MDA-MB-231, MDA-MB-468, Hs578T and BT-549 cells (American Type Culture Collection) were cultured at 37° C. with 5% CO2 in Dulbecco's modified Eagle's medium containing (DMEM) (Gibco) supplemented with 5% FBS (HyClone), 100 units/ml penicillin, […] streptomycin (Gibco), non-essential amino acids (Gibco) and 2 mM 1-glutamine (Gibco). Doxorubicin (Selleckchem), cisplatin (Sigma) or olaparib (Selleckchem) were dissolved in DMSO or DMF (cisplatin). […] Pure NO2-OA was diluted in DMSO and added to cells after solvation in assay media. Relative cell numbers were compared by measuring the luminescent signal generated by ATP using the CellTiter-Glo (Promega) assay. Cells were plated in a 96-well plate at 5,000 (MDA-MB-231) or 6,600 (BT549 or Hs578T) cells per well.
Data represent the mean±SEM from 3 independent experiments unless otherwise noted. A p value<0.05 was considered statistically significant. Non-linear curves were generated in GraphPad Prism 7.0 (GraphPad Software, La Jolla, CA, USA) for statistical analysis. EC50 values and standard error were calculated from three independent experiments utilizing a non-linear dose response variable slope model. Significance was tested by one-way ANOVA for multiple groups with Tukey posttest or by t-test when groups were less than three. RAD51 foci number was analyzed with ImageJ. Nuclear boundaries were individually identified in more than 50 cells per treatment group in three independent experiments.
The growth of BT-549 cells was not affected. […] MDA-MB-231 cells were plated in a 96 well plate and treated with talazoparib (0.01-75 μM) plus OA-NO2 or NDA-NO2 (0.2-12 μM) daily for 3 days. Growth inhibition (relative cell numbers) of MDA-MB-231 cells was determined by luminescent detection of ATP (CellTiter-Glo) (FIG. 1K).

[6] = test system: human high grade serous ovarian cancer cells; test: Cell growth/viability by luminescent ATP with PARP inhibitors; format: cell-based; details: with Olaparib or Talazoparib
Description: Cell growth/viability is determined from luminescent detection of cell ATP concentration.

[7] = test system: homologous recombination (DR-GFP, U2OS cells); test: DR-GFP HR reporter assay in U2OS cells; format: cell-based; details: FIG. 16B
Description: Measurements of NHEJ, HR, Alt-EJ and SSA assays were performed as previously described. HR activity was measured by counting GFP-positive cells by flow cytometry at the MWRI flow cytometry core using a BD LSRII (BD Biosciences). RAD51 overexpressing cells were generated by stable transfection of pLVX RAD51 IRES Neo and selection with geneticin (Invitrogen).
U2OS cells were prepared as above, but 5 h following compound treatment, cells were transferred into the Incucyte Zoom (Essen) live-cell imaging automated fluorescence microscope at 37° C. with 5% CO2. Cell confluence and green object count per mm2 were determined using Incucyte Zoom software. Green object count per field was normalized to cell confluency to correct for NO2—OA-induced effects on cell proliferation.
NO2-OA-dependent effects on HR DNA repair were further investigated by utilizing a DRGFP reporter assay. This analysis quantifies intracellular recombination of an integrated cDNA cassette of two tandem non-fluorescent GFP constructs following introduction of an I-SceI cleavage to the system by measuring the fluorescent GFP protein that is produced following successful recombination. […] A novel strategy was used to measure the kinetics of changes in HR in live cells by using automated fluorescence microscopy to track the emergence of GFP positive cells over time in monolayers, as opposed to making static measurements of detached cells using flow cytometry. […] This was indicated by an absence of changes in the number of GFP positive cells following I-SceI cleavage after 48 h by flow cytometric analysis or over 68 h by live-cell fluorescence microscopy (FIGS. 2C, 2D).

Cc1ccc(S(=O)(=O)/C=C/C#N)cc1 [BAY11-7082, 3[(4-methylphenyl)sulfonyl]-(2E)-propenenitrile, reference compound]
TNFα-induced IKKβ phosphorylation (IKKβ; NO2-OA 5 μM or BAY11-7082 10 μM 2 hr, TNFα 20 ng/mL 5 min): diminished | degradation of IκBα following TNFα stimulation (IKKβ; TNFα 20 ng/mL, 10 min): inhibited the degradation of IκBβ | IκBα phosphorylation (IKKβ; with proteasome inhibitor MG-132 10 μM): decreased IκBβ phosphorylation

CCCCCCCCC(CCCCCCCCC(=O)O)[N+](=O)[O-] (stereo not drawn) [NO2—SA, 10-nitro-octadecanoic acid, reference compound]
NF-κB-dependent transcription of luciferase [1]: no effect | cell cycle populations and regulatory proteins [2]: did not affect cell cycle populations | RelA protein abundance [3]: no effect | TNBC cell growth (MDA-MB-231 cells [4]): did not affect TNBC cell growth | TNFα-induced invasion (MDA-MB-468 cells): marginal effects

CCCCCCCCCCC/C=C(\CCCCCC(=O)O)[N+](=O)[O-] [7-NDA, 7-NO2-nonadec-7-enoic acid]
formation of active nitroalkene beta-oxidation metabolites (dinor, tetranor) (MDA-MB 231 TNBC cells): does not result in the formation of active, nitroalkene containing metabolites | omega hydroxylation and carboxylation (MDA-MB 231 TNBC cells): omega hydroxylation and carboxylation | cysteine adduct formation (MDA-MB 231 TNBC cells): form cysteine adducts that are detected in cell media and cell homogenate | EC50 for growth inhibition, compared between compounds (MDA-MB-231 cells [5]): more sensitive to 7-NDA and 8-NDA when compared to OA-NO2 | IC50 compared with NO2-OA (MDA-MB-231 cells [5]; FIG. 12): lower IC50 compared NO2-OA | Combination index (CI), Chou-Talalay (MDA-MB-231 cells [5]; with talazoparib (0.01-75 μM), 0.2-12 μM, daily 3 days, CI<1 is synergistic): better combination indices; also recorded: better CI values compared to OA-NO2

CCCCCCCCCCC/C(=C\CCCCCC(=O)O)[N+](=O)[O-] [8-NDA, 8-NO2-nonadec-7-enoic acid]
formation of active nitroalkene beta-oxidation metabolites (dinor, tetranor) (MDA-MB 231 TNBC cells): result in the active (structures having the reactive nitroalkene moiety) beta-oxidation products | omega hydroxylation and carboxylation (MDA-MB 231 TNBC cells): omega hydroxylation and carboxylation | cysteine adduct formation (MDA-MB 231 TNBC cells): form cysteine adducts that are detected in cell media and cell homogenate | EC50 for growth inhibition, compared between compounds (MDA-MB-231 cells [5]): more sensitive to 7-NDA and 8-NDA when compared to OA-NO2

CCCCCCCCC=CCCCCCCCC(=O)O [OA, octadec-9-enoic acid, reference compound]
NF-κB-dependent transcription of luciferase [1]: no effect | EC50 for growth inhibition, compared between compounds (MDA-MB-231 cells [5]): did not induce any growth inhibition

methyl-ethyl-4-nitro-oct-4-enedioate [CP-1]
concentration of PARP inhibitor needed for 50% tumor cell killing [6]: lowers the concentration of the PARP inhibitors | inhibition of homologous recombination [7]: inhibition of homologous recombination | EC50 for growth inhibition, compared between compounds (MDA-MB-231 cells [5]): lower EC50 than OA-NO2; also recorded: lowest EC50

Cc1ccc(NCCCc2ccccc2)c(N)c1 [JSH-23, 4-Methyl-N1-(3-phenyl-propyl)-benzene-1,2-diamine]
TNFα-induced invasion (MDA-MB-468 cells): inhibition of MDA-MB-468 cell invasion

— patent US12390435B2, “Electrophiles and electrophile pro-drugs as RAD51 inhibitors” (University of Pittsburgh—Of the Commonwealth System of …, priority 2018, dated 2025)
